Assay results as given in patent publication US20250353891A1 (MEDIMMUNE LIMITED, priority 2022, published 2025).
Starred links: 1 amine or outer side, 2 acyl side, 3 side chain; linkers in the order of their positions; H or OH if unused. Non-standard residues stand in square brackets, D forms with d. Residues, ends and D or L forms follow the SMILES beside them. Groups on a side chain read outwards from the residue. *: point of attachment. γGlu = O=C(O)[C@H](CCC(=O)[*:2])N[*:1]; Stearoyl = CCCCCCCCCCCCCCCCCC(=O)*; Palmitoyl = CCCCCCCCCCCCCCCC(=O)*; αMeF = C[C@](N)(Cc1ccccc1)C(=O)O; Myristoyl = CCCCCCCCCCCCCC(=O)*; PEG2 = NCCOCCOCCC(=O)O; Aib = CC(C)(N)C(=O)O

Assays:
[1] = biological target: human GLP-1 receptor (hGLP-1R) (Homo sapiens, UniProt P43220); assay: cAMP production (HTRF) in CHO cells expressing hGLP-1R; type: cell-based; design: expressed in transfected cells; settings: for EC50: Table 6, peptides modified at position 17, cAMP in CHO hGLP-1R cells, geometric mean, read-out: hGLP-1R EC50; for % Relative Potency Ratio: Table 6, % GLP-1R activity relative to GLP-1 / % GlucR activity relative to glucagon
Procedure, shortened: (§1)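 Cells were resuspended in assay buffer at batch-optimized density, typically 1×10^5 cells/mL for hGLP-1R and 2×10^5 cells/mL for hGCGR. After 30 min incubation at room temperature with compound, cAMP was measured by two-step HTRF. EC50 values came from 4-parameter logistic fits of % Delta F.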

[2] = biological target: human glucagon receptor (hGCGR) (Homo sapiens, UniProt P47871); assay: cAMP production (HTRF) in CHO cells expressing hGCGR; type: cell-based; design: expressed in transfected cells; settings: Table 6, peptides modified at position 17; cAMP in CHO hGCGR cells; geometric mean; read-out: hGluc-R EC50
Procedure, shortened: as §1

Chain of human GLP-1 receptor (hGLP-1R) (P43220 24-463): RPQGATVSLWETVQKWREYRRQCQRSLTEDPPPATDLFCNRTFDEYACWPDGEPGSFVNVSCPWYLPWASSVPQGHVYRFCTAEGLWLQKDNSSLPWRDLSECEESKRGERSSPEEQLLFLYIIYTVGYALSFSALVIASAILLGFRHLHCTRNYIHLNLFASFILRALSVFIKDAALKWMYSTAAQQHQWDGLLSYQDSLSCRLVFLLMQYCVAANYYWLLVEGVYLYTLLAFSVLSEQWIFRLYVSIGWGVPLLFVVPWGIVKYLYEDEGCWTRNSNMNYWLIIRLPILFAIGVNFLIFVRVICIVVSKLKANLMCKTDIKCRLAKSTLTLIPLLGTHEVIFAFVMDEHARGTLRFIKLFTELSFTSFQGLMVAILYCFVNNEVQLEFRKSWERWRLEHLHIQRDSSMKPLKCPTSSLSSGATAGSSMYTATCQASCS
Chain of human glucagon receptor (hGCGR) (P47871 26-477): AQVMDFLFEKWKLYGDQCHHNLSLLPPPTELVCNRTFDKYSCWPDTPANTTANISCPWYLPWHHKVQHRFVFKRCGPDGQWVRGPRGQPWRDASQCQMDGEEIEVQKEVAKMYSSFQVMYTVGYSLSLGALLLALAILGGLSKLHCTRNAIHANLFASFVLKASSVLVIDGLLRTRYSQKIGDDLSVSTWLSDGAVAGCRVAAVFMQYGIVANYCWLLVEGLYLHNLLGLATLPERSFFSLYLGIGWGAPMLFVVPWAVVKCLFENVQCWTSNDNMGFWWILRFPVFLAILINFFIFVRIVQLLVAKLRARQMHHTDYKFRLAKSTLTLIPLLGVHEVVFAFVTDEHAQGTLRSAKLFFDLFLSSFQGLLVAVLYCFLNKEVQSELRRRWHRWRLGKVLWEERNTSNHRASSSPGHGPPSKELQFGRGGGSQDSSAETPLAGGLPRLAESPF

EC50 [1] [pM] | % Relative Potency Ratio [1] | EC50 [2] [pM] | Structure (SMILES)
24.3 | 0.8 | 10.3 | CCCCCCCCCCCCCCCC(=O)N[C@@H](CCC(=O)N[C@@H](CCC(=O)NCCOCCOCCC(=O)NCCOCCOCCC(=O)NCCCC[C@H](NC(=O)[C@H](CO)NC(=O)[C@H](CC(=O)O)NC(=O)[C@H](CC(C)C)NC(=O)[C@@H](NC(=O)[C@H](CCCCN)NC(=O)[C@H](CO)NC(=O)[C@@H](NC(=O)[C@H](CC(=O)O)NC(=O)[C@H](CO)NC(=O)[C@@H](NC(=O)[C@](C)(Cc1ccccc1)NC(=O)[C@H](CO)NC(=O)CNC(=O)[C@H](CCC(N)=O)NC(=O)[C@H](CO)NC(=O)[C@@H](N)Cc1c[nH]cn1)[C@@H](C)O)C(C)C)[C@@H](C)CC)C(=O)N[C@@H](C)C(=O)N[C@@H](C)C(=O)N[C@@H](CCC(N)=O)C(=O)N[C@@H](CC(=O)O)C(=O)N[C@@](C)(Cc1ccccc1)C(=O)N[C@H](C(=O)N[C@@H](CCC(=O)O)C(=O)N[C@@H](Cc1c[nH]c2ccccc12)C(=O)N[C@H](C(=O)N[C@H](C(=O)N[C@@H](CC(N)=O)C(=O)N[C@H](C(N)=O)[C@@H](C)O)[C@@H](C)CC)[C@@H](C)CC)C(C)C)C(=O)O)C(=O)O [Peptide 116] (H-HSQGS[αMeF]TSDVSKILDSK([PEG2-PEG2-γGlu-γGlu-Palmitoyl])AAQD[αMeF]VEWIINT-NH2; N-terminus assumed)
1.07 | 2.2 | 1.2 | CCCCCCCCCCCCCCCC(=O)N[C@@H](CCC(=O)N[C@@H](CCC(=O)NCCOCCOCCC(=O)NCCOCCOCCC(=O)NCCCC[C@H](NC(=O)[C@H](CO)NC(=O)[C@H](CC(=O)O)NC(=O)[C@H](CC(C)C)NC(=O)[C@@H](NC(=O)[C@H](CCCCN)NC(=O)[C@H](CO)NC(=O)[C@@H](NC(=O)[C@H](CC(=O)O)NC(=O)[C@H](CO)NC(=O)[C@@H](NC(=O)[C@](C)(Cc1ccccc1)NC(=O)[C@H](CO)NC(=O)CNC(=O)[C@H](CCC(N)=O)NC(=O)[C@H](CO)NC(=O)[C@@H](N)Cc1c[nH]cn1)[C@@H](C)O)C(C)C)[C@@H](C)CC)C(=O)N[C@@H](C)C(=O)N[C@@H](C)C(=O)N[C@@H](CCC(N)=O)C(=O)N[C@@H](CC(=O)O)C(=O)N[C@@](C)(Cc1ccccc1)C(=O)N[C@H](C(=O)N[C@@H](CCC(N)=O)C(=O)NC(C)(C)C(=O)N[C@H](C(=O)N[C@H](C(=O)N[C@@H](CC(N)=O)C(=O)N[C@H](C(N)=O)[C@@H](C)O)[C@@H](C)CC)[C@@H](C)CC)C(C)C)C(=O)O)C(=O)O [Peptide 118] (H-HSQGS[αMeF]TSDVSKILDSK([PEG2-PEG2-γGlu-γGlu-Palmitoyl])AAQD[αMeF]VQ[Aib]IINT-NH2)
1.39 | 2.4 | 1.7 | CCCCCCCCCCCCCC(=O)N[C@@H](CCC(=O)N[C@@H](CCC(=O)NCCOCCOCCC(=O)NCCOCCOCCC(=O)NCCCC[C@H](NC(=O)[C@H](CO)NC(=O)[C@H](CC(=O)O)NC(=O)[C@H](CC(C)C)NC(=O)[C@@H](NC(=O)[C@H](CCCCN)NC(=O)[C@H](CO)NC(=O)[C@@H](NC(=O)[C@H](CC(=O)O)NC(=O)[C@H](CO)NC(=O)[C@@H](NC(=O)[C@](C)(Cc1ccccc1)NC(=O)[C@H](CO)NC(=O)CNC(=O)[C@H](CCC(N)=O)NC(=O)[C@H](CO)NC(=O)[C@@H](N)Cc1c[nH]cn1)[C@@H](C)O)C(C)C)[C@@H](C)CC)C(=O)N[C@@H](C)C(=O)N[C@@H](C)C(=O)N[C@@H](CCC(N)=O)C(=O)N[C@@H](CC(=O)O)C(=O)N[C@@](C)(Cc1ccccc1)C(=O)N[C@H](C(=O)N[C@@H](CCC(N)=O)C(=O)NC(C)(C)C(=O)N[C@H](C(=O)N[C@H](C(=O)N[C@@H](CC(N)=O)C(=O)N[C@H](C(N)=O)[C@@H](C)O)[C@@H](C)CC)[C@@H](C)CC)C(C)C)C(=O)O)C(=O)O [Peptide 119] (H-HSQGS[αMeF]TSDVSKILDSK([PEG2-PEG2-γGlu-γGlu-Myristoyl])AAQD[αMeF]VQ[Aib]IINT-NH2; N-terminus assumed)
1.81 | 2.9 | 2.62 | CCCCCCCCCCCCCCCCCC(=O)N[C@@H](CCC(=O)NCCOCCOCCC(=O)NCCOCCOCCC(=O)NCCCC[C@H](NC(=O)[C@H](CO)NC(=O)[C@H](CC(=O)O)NC(=O)[C@H](CC(C)C)NC(=O)[C@@H](NC(=O)[C@H](CCCCN)NC(=O)[C@H](CO)NC(=O)[C@@H](NC(=O)[C@H](CC(=O)O)NC(=O)[C@H](CO)NC(=O)[C@@H](NC(=O)[C@](C)(Cc1ccccc1)NC(=O)[C@H](CO)NC(=O)CNC(=O)[C@H](CCC(N)=O)NC(=O)[C@H](CO)NC(=O)[C@@H](N)Cc1c[nH]cn1)[C@@H](C)O)C(C)C)[C@@H](C)CC)C(=O)N[C@@H](C)C(=O)N[C@@H](C)C(=O)N[C@@H](CCC(N)=O)C(=O)N[C@@H](CC(=O)O)C(=O)N[C@@](C)(Cc1ccccc1)C(=O)N[C@H](C(=O)N[C@@H](CCC(N)=O)C(=O)NC(C)(C)C(=O)N[C@H](C(=O)N[C@H](C(=O)N[C@@H](CC(N)=O)C(=O)N[C@H](C(N)=O)[C@@H](C)O)[C@@H](C)CC)[C@@H](C)CC)C(C)C)C(=O)O [Peptide 120] (H-HSQGS[αMeF]TSDVSKILDSK([PEG2-PEG2-γGlu-Stearoyl])AAQD[αMeF]VQ[Aib]IINT-NH2; N-terminus assumed)
1.5 | 1.6 | 1.2 | CCCCCCCCCCCCCCCC(=O)N[C@@H](CCC(=O)NCCOCCOCCC(=O)NCCOCCOCCC(=O)NCCCC[C@H](NC(=O)[C@H](CO)NC(=O)[C@H](CC(=O)O)NC(=O)[C@H](CC(C)C)NC(=O)[C@@H](NC(=O)[C@H](CCCCN)NC(=O)[C@H](CO)NC(=O)[C@@H](NC(=O)[C@H](CC(=O)O)NC(=O)[C@H](CO)NC(=O)[C@@H](NC(=O)[C@](C)(Cc1ccccc1)NC(=O)[C@H](CO)NC(=O)CNC(=O)[C@H](CCC(N)=O)NC(=O)[C@H](CO)NC(=O)[C@@H](N)Cc1c[nH]cn1)[C@@H](C)O)C(C)C)[C@@H](C)CC)C(=O)N[C@@H](C)C(=O)N[C@@H](C)C(=O)N[C@@H](CCC(N)=O)C(=O)N[C@@H](CC(=O)O)C(=O)N[C@@](C)(Cc1ccccc1)C(=O)N[C@H](C(=O)N[C@@H](CCC(N)=O)C(=O)NC(C)(C)C(=O)N[C@H](C(=O)N[C@H](C(=O)N[C@@H](CC(N)=O)C(=O)N[C@H](C(N)=O)[C@@H](C)O)[C@@H](C)CC)[C@@H](C)CC)C(C)C)C(=O)O [Peptide 121] (H-HSQGS[αMeF]TSDVSKILDSK([PEG2-PEG2-γGlu-Palmitoyl])AAQD[αMeF]VQ[Aib]IINT-NH2; N-terminus assumed)
 | 51.4 | 12.9 | CCCCCCCCCCCCCCCC(=O)N[C@@H](CCC(=O)N[C@@H](CCC(=O)NCCOCCOCCC(=O)NCCOCCOCCC(=O)NCCCC[C@H](NC(=O)[C@H](CO)NC(=O)[C@H](CC(=O)O)NC(=O)[C@H](CC(C)C)NC(=O)[C@@H](NC(=O)[C@H](CCCCN)NC(=O)[C@H](CO)NC(=O)[C@@H](NC(=O)[C@H](CC(=O)O)NC(=O)[C@H](CO)NC(=O)[C@@H](NC(=O)[C@](C)(Cc1ccccc1)NC(=O)[C@H](CO)NC(=O)CNC(=O)[C@H](CCC(N)=O)NC(=O)C(C)(C)NC(=O)[C@@H](N)Cc1c[nH]cn1)[C@@H](C)O)C(C)C)[C@@H](C)CC)C(=O)N[C@@H](C)C(=O)N[C@@H](C)C(=O)N[C@@H](CCC(N)=O)C(=O)N[C@@H](CC(=O)O)C(=O)N[C@@](C)(Cc1ccccc1)C(=O)N[C@H](C(=O)N[C@@H](CCC(N)=O)C(=O)N[C@H](C(=O)N[C@H](C(=O)N[C@@H](C)C(=O)N[C@@H](CC(N)=O)C(N)=O)[C@@H](C)CC)[C@@H](C)CC)C(C)C)C(=O)O)C(=O)O [Peptide 123] (H-H[Aib]QGS[αMeF]TSDVSKILDSK([PEG2-PEG2-γGlu-γGlu-Palmitoyl])AAQD[αMeF]VQIIAN-NH2; N-terminus assumed)
1.27 | 15.2 | 9.79 | CCCCCCCCCCCCCCCCCC(=O)N[C@@H](CCC(=O)N[C@@H](CCC(=O)NCCOCCOCCC(=O)NCCOCCOCCC(=O)NCCCC[C@H](NC(=O)[C@H](CO)NC(=O)[C@H](CC(=O)O)NC(=O)[C@H](CC(C)C)NC(=O)[C@@H](NC(=O)[C@H](CCCCN)NC(=O)[C@H](CO)NC(=O)[C@@H](NC(=O)[C@H](CC(=O)O)NC(=O)[C@H](CO)NC(=O)[C@@H](NC(=O)[C@](C)(Cc1ccccc1)NC(=O)[C@H](CO)NC(=O)CNC(=O)[C@H](CCC(N)=O)NC(=O)C(C)(C)NC(=O)[C@@H](N)Cc1c[nH]cn1)[C@@H](C)O)C(C)C)[C@@H](C)CC)C(=O)N[C@@H](C)C(=O)N[C@@H](C)C(=O)N[C@@H](CCC(N)=O)C(=O)N[C@@H](CC(=O)O)C(=O)N[C@@](C)(Cc1ccccc1)C(=O)N[C@H](C(=O)N[C@@H](CCC(N)=O)C(=O)NC(C)(C)C(=O)N[C@H](C(=O)N[C@H](C(=O)N[C@@H](CC(N)=O)C(=O)N[C@H](C(N)=O)[C@@H](C)O)[C@@H](C)CC)[C@@H](C)CC)C(C)C)C(=O)O)C(=O)O [Peptide 124] (H-H[Aib]QGS[αMeF]TSDVSKILDSK([PEG2-PEG2-γGlu-γGlu-Stearoyl])AAQD[αMeF]VQ[Aib]IINT-NH2; N-terminus assumed)
